Broadly, the IC50 is the concentration that gives 50% inhibition.

The results in this text go back to patent publication US20250236608A1, “EGFR INHIBITORS” (Blueprint Medicines Corporation, priority 2022, published 2025).

The target in assay [1] is pEGFR (Tyr1068) in PC-9 cells (Ex19Del) (Homo sapiens (Human), UniProt P00533, DEL746-750). Description: PC-9 pEGFR AlphaLISA assay. It is filed as cell-based. As to conditions: 4 hours incubation, p-EGFR (Tyr1068) AlphaLISA, read-out: Ext pEGFR_PC-9 Ex19Del IC50. The essentials:
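Compounds are added in ten 4-fold dilutions to adherent cells grown in serum-containing (10% FBS) phenol-free DMEM and left for 4 hours at 37° C. Phosphorylated receptor in lysates is quantified by bead-based AlphaLISA. IC50 values derive from inhibition plotted against log dose.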

Another assay deals with EGFR (d746-750) (Homo sapiens (Human), UniProt P00533, DEL746-750). Description: Biochemical EGFR inhibition assay, EGFR (d746-750). To be noted: Caliper mobility shift; 1.0 mM ATP or ATP Km; read-out: Enz EGFR_Exon19-del746-750 IC50.
Chain of EGFR (d746-750) (P00533 other isoform, or with tags, fused parts or gaps del 1-694/del 746-750 limits assumed): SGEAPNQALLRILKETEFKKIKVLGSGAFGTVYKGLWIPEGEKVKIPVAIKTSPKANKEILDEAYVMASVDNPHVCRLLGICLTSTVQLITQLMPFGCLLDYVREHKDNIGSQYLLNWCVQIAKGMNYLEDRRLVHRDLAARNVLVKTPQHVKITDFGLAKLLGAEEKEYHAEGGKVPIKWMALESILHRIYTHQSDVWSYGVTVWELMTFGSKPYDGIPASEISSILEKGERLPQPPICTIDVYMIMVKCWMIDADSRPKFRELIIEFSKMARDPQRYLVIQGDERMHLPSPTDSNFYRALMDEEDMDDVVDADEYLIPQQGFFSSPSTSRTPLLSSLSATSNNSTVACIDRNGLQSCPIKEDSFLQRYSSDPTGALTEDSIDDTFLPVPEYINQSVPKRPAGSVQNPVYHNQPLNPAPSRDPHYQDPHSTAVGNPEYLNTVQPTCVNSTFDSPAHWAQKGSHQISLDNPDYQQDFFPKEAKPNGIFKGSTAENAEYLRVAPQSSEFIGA
The target in a further assay is EGFR L858R (Homo sapiens (Human), UniProt P00533, L858R). Description: Biochemical EGFR inhibition assay, EGFR L858R. As to conditions: Caliper mobility shift; 1.0 mM ATP or ATP Km; read-out: Enz EGFR_L858R IC50.
Chain of EGFR L858R (P00533 25-1210 L858R): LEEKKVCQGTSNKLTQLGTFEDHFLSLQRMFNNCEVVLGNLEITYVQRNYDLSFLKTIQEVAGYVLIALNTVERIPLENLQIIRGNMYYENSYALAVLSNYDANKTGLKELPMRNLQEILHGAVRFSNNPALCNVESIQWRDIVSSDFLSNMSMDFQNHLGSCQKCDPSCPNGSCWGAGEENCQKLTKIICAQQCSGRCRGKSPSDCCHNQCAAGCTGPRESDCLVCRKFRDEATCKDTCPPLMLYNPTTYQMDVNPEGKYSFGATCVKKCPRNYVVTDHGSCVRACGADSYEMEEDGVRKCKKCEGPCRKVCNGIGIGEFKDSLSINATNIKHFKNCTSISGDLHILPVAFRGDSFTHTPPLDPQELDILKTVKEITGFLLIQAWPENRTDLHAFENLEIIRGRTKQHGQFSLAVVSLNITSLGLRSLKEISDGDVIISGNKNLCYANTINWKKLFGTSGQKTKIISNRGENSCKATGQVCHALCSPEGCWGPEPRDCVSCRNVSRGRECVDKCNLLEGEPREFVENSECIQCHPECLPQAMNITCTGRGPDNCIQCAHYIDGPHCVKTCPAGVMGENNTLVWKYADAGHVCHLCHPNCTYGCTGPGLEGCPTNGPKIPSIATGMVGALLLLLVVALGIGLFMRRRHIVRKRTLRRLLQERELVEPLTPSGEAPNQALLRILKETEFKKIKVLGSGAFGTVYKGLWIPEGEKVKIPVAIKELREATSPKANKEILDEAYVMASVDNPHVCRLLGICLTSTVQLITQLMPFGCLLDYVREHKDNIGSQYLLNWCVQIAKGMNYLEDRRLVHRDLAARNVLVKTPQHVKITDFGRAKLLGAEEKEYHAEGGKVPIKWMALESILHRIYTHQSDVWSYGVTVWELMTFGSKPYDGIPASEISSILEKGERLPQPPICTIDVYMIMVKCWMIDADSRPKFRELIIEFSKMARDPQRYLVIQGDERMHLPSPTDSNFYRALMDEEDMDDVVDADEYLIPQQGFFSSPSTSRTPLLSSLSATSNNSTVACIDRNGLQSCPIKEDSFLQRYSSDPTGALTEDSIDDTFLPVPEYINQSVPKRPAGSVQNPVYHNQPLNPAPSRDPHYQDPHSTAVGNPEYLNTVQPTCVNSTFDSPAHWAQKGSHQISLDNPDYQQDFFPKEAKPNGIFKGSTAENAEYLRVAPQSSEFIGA

Chain of pEGFR (Tyr1068) in PC-9 cells (Ex19Del) (P00533 other isoform, or with tags, fused parts or gaps del 746-750): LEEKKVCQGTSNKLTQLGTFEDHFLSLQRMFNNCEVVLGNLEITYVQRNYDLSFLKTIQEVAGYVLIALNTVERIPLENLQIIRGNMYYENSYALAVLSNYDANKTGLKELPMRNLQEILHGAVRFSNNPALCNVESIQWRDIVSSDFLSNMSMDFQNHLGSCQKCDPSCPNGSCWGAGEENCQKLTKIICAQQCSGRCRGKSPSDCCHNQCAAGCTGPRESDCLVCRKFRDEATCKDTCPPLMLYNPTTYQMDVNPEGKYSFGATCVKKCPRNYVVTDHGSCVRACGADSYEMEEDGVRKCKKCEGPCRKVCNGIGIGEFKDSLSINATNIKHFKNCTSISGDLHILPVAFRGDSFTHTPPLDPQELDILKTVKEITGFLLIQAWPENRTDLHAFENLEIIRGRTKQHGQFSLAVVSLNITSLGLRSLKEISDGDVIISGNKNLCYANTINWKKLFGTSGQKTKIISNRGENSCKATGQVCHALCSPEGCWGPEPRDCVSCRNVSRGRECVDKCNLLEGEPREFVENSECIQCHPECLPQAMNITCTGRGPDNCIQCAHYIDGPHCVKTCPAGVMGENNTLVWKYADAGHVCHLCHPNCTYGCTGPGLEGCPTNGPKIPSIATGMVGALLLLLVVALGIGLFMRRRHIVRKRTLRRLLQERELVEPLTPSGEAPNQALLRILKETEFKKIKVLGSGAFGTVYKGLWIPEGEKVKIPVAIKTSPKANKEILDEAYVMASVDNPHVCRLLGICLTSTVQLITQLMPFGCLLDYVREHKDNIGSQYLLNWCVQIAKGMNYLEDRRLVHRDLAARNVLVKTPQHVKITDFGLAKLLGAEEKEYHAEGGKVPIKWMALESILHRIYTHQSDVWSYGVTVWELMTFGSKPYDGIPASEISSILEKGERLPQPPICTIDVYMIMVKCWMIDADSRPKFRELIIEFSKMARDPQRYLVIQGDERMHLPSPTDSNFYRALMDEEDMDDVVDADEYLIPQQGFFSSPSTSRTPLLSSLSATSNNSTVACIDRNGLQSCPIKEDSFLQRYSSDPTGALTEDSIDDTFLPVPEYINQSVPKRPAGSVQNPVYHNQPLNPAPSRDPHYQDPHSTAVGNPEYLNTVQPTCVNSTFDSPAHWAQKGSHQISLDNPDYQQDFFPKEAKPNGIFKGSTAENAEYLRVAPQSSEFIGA

As to `COc1cc2ncnc(-c3cn(C)nc3-c3ccc(F)cc3F)c2nc1NC(=O)[C@]12C[C@H]1CN(C)C2` (single isomer, unassigned) [Example 424, (1R,5R)—N-(4-(3-(2,4-difluorophenyl)-1-methyl-1H-pyrazol-4-yl)-7-methoxypyrido[3,2-d]pyrimidin-6-yl)-3-methyl-3-azabicyclo[3.1.0]hexane-1-carboxamide or (1S,5S)—N-(4-(3-(2,4-difluorophenyl)-1-methyl-1H-pyrazol-4-yl)-7-methoxypyrido[3,2-d]pyrimidin-6-yl)-3-methyl-3-azabicyclo[3.1.0]hexane-1-carboxamide], the IC50 in assay [1] is 1.5 nM; on EGFR (d746-750), 1.2 nM; at EGFR L858R, 2.3 nM.
Consider `COc1cc2ncnc(-c3cn(C)nc3-c3ccc(F)cc3)c2nc1NC(=O)[C@]12CN(C)C[C@H]1C2(F)F` (single isomer, unassigned) [Example 425, (1R,5S)-6,6-difluoro-N-(4-(3-(4-fluorophenyl)-1-methyl-1H-pyrazol-4-yl)-7-methoxypyrido[3,2-d]pyrimidin-6-yl)-3-methyl-3-azabicyclo[3.1.0]hexane-1-carboxamide or (1S,5R)-6,6-difluoro-N-(4-(3-(4-fluorophenyl)-1-methyl-1H-pyrazol-4-yl)-7-methoxypyrido[3,2-d]pyrimidin-6-yl)-3-methyl-3-azabicyclo[3.1.0]hexane-1-carboxamide], for which the half-inhibitory concentration (IC50) in assay [1] turned out to be 0.8 nM; on EGFR (d746-750), 1 nM; at EGFR L858R, 2.8 nM.
Consider `COc1cc2ncnc(-c3cn(C)nc3-c3ccc(F)cc3)c2nc1NC(=O)[C@@]12CN(C)C[C@@H]1C2(F)F` (single isomer, unassigned) [Example 426, (1S,5R)-6,6-difluoro-N-(4-(3-(4-fluorophenyl)-1-methyl-1H-pyrazol-4-yl)-7-methoxypyrido[3,2-d]pyrimidin-6-yl)-3-methyl-3-azabicyclo[3.1.0]hexane-1-carboxamide or (1R,5S)-6,6-difluoro-N-(4-(3-(4-fluorophenyl)-1-methyl-1H-pyrazol-4-yl)-7-methoxypyrido[3,2-d]pyrimidin-6-yl)-3-methyl-3-azabicyclo[3.1.0]hexane-1-carboxamide], for which the results for the IC50 (in assay [1]; at EGFR (d746-750); at EGFR L858R) were 1.3 nM, 1.1 nM and 2.8 nM, respectively.
The matching figures for `COc1cc2ncnc(-c3cn(C)nc3-c3ccccc3)c2nc1NC(=O)[C@@]1(C(F)(F)F)CCCN1C` (single isomer, unassigned) [Example 429, (R)—N-(7-methoxy-4-(1-methyl-3-phenyl-1H-pyrazol-4-yl)pyrido[3,2-d]pyrimidin-6-yl)-1-methyl-2-(trifluoromethyl) pyrrolidine-2-carboxamide or (S)—N-(7-methoxy-4-(1-methyl-3-phenyl-1H-pyrazol-4-yl)pyrido[3,2-d]pyrimidin-6-yl)-1-methyl-2-(trifluoromethyl) pyrrolidine-2-carboxamide]: 11.4 nM, 2.7 nM and 5.9 nM.
For `COc1cc2ncnc(-c3cn(C)nc3-c3ccccc3)c2nc1NC(=O)[C@]1(C(F)(F)F)CCCN1C` (single isomer, unassigned) [Example 430, (S)—N-(7-methoxy-4-(1-methyl-3-phenyl-1H-pyrazol-4-yl)pyrido[3,2-d]pyrimidin-6-yl)-1-methyl-2-(trifluoromethyl) pyrrolidine-2-carboxamide or (R)—N-(7-methoxy-4-(1-methyl-3-phenyl-1H-pyrazol-4-yl)pyrido[3,2-d]pyrimidin-6-yl)-1-methyl-2-(trifluoromethyl) pyrrolidine-2-carboxamide] the same measures were 16 nM, 3.7 nM and 19 nM.
For `COc1cc2ncnc(-c3cn(C)nc3-c3ccccc3)c2nc1NC(=O)[C@@]12COC[C@@H]1C2` (single isomer, unassigned) [Example 431, (1R,5R)—N-(7-methoxy-4-(1-methyl-3-phenyl-1H-pyrazol-4-yl)pyrido[3,2-d]pyrimidin-6-yl)-3-oxabicyclo[3.1.0]hexane-1-carboxamide or (1S,5S)—N-(7-methoxy-4-(1-methyl-3-phenyl-1H-pyrazol-4-yl)pyrido[3,2-d]pyrimidin-6-yl)-3-oxabicyclo[3.1.0]hexane-1-carboxamide], the figures for the IC50 (in assay [1]; on EGFR (d746-750); at EGFR L858R) were 1.2 nM, 0.6 nM and 1.4 nM, respectively.
For `COc1cc2ncnc(-c3cn(C)nc3-c3ccccc3)c2nc1NC(=O)[C@]12COC[C@H]1C2` (single isomer, unassigned) [Example 432, (1S,5S)—N-(7-methoxy-4-(1-methyl-3-phenyl-1H-pyrazol-4-yl)pyrido[3,2-d]pyrimidin-6-yl)-3-oxabicyclo[3.1.0]hexane-1-carboxamide or (1R,5R)—N-(7-methoxy-4-(1-methyl-3-phenyl-1H-pyrazol-4-yl)pyrido[3,2-d]pyrimidin-6-yl)-3-oxabicyclo[3.1.0]hexane-1-carboxamide] the same measures were 2.5 nM, 0.9 nM and 1.9 nM.
Take `C[C@@H](O)c1cc2c(-c3cn(CC(F)F)nc3-c3ccccc3)ncnc2cc1-c1cnn(C)c1` (single isomer, unassigned) [Example 445, (R)-1-(4-(1-(2,2-difluoroethyl)-3-phenyl-1H-pyrazol-4-yl)-7-(1-methyl-1H-pyrazol-4-yl)quinazolin-6-yl)ethan-1-ol or (S)-1-(4-(1-(2,2-difluoroethyl)-3-phenyl-1H-pyrazol-4-yl)-7-(1-methyl-1H-pyrazol-4-yl)quinazolin-6-yl)ethan-1-ol]: the results for the half-inhibitory concentration (IC50) (in assay [1]; on EGFR (d746-750); at EGFR L858R) were 2.7 nM, 1 nM and 1.5 nM, respectively.
Consider `C[C@H](O)c1cc2c(-c3cn(CC(F)F)nc3-c3ccccc3)ncnc2cc1-c1cnn(C)c1` (single isomer, unassigned) [Example 446, (S)-1-(4-(1-(2,2-difluoroethyl)-3-phenyl-1H-pyrazol-4-yl)-7-(1-methyl-1H-pyrazol-4-yl)quinazolin-6-yl)ethan-1-ol or (R)-1-(4-(1-(2,2-difluoroethyl)-3-phenyl-1H-pyrazol-4-yl)-7-(1-methyl-1H-pyrazol-4-yl)quinazolin-6-yl)ethan-1-ol], for which the IC50 in assay [1] came out at 0.7 nM; at EGFR (d746-750) it was 0.6 nM; at EGFR L858R, 0.9 nM.
Consider `Cc1nnc([C@H](C)Oc2nc3c(-c4cn(C)nc4-c4ccccc4)ncnc3cc2OC2CC2)o1` (single isomer, unassigned) [Example 477, 2-[(1R)-1-{[7-cyclopropoxy-4-(1-methyl-3-phenyl-1H-pyrazol-4-yl)pyrido[3,2-d]pyrimidin-6-yl]oxy}ethyl]-5-methyl-1,3,4-oxadiazole or 2-[(1S)-1-{[7-cyclopropoxy-4-(1-methyl-3-phenyl-1H-pyrazol-4-yl)pyrido[3,2-d]pyrimidin-6-yl]oxy}ethyl]-5-methyl-1,3,4-oxadiazole], for which the values for the IC50 (in assay [1]; at EGFR (d746-750); on EGFR L858R) were 25 nM, 9 nM and 7.7 nM, respectively.
